Patent US20230102924A1, “Methods of Treating Cancer Using Checkpoint Inhibitors in Combination with Purine Cleaving Enzymes” (priority 2020, published 2023)
“Also recorded” adds a separate entry of the source.

B1: E. coli PNP: E. coli purine nucleoside phosphorylase expressed in the EMT-6-PNP-EMU transduced tumor cell line (protein, UniProt P0ABP8 2-239, looked up)
Purine nucleoside …: ATPHINAEMGDFADVVLMPGDPLRAKYIAETFLEDAREVNNVRGMLGFTGTYKGRKISVMGHGMGIPSCSIYTKELITDFGVKKIIRVGSCGAVLPHVKLRDVVIGMGACTDSKVNRIRFKDHDFAAIADFDMVRNAVDAAKALGIDARVGNLFSADLFYSPDGEMFDVMEKYGILGVEMEAAGIYGVAAEFGAKALTICTVSDHIRTHEQTTAAERQTTFNDMIKIALESVLLGDKE

Assays:
[1] = system: EMT-6 tumors that express E. coli PNP; test: EMT-6 murine breast tumors expressing E. coli PNP (left flank) in mice, fludarabine phosphate plus or minus anti-CTLA4-9H10; format: in vivo, female BALB/c mice
Experimental: (§1) In order to evaluate efficacy, the parental EMT-6-EMU cell line and the EMT-6-PNP-EMU transduced cell line were evaluated. The EMT-6-PNP-EMU transduced cell line and the parental EMT-6-EMU cell line were implanted as shown below in each flank with or without dosing with fludarabine phosphate and/or anti-CTLA-4 antibody using female BALB/c mice.
(§2) Mice were implanted with EMT-6 murine tumors on both the right and left flanks. In groups 1 through 6 the right flanks were implanted with parental (non-PNP) tumors and the left flanks were implanted with tumors expressing E. coli PNP. In groups 7 through 10, both the right and left flanks were injected with parental tumors.

[2] = system: EMT-6 tumors that do not express E. coli PNP; test: Parental EMT-6 murine breast tumors (non-PNP) in mice, fludarabine phosphate plus or minus anti-CTLA4-9H10; format: in vivo, female BALB/c mice; conditions: for abscopal effect on a non-PNP tumor of a contralateral PNP tumor regressing due to F-araAMP: F-araAMP 90 mg/kg with anti-CTLA4-9H10
Experimental: as §1, §2

[3] = FIG. 3 and 5, day 15, right flank non-PNP tumors, PNP tumor contralaterally

Molecule | effect on EMT-6 breast tumors that express E. coli PNP ([1]; FIG. 1, groups 1, 2, 4, 5, F-araAMP 75 mg/kg plus or minus anti-CTLA4-9H10, left flank tumors) | effect on EMT-6 tumors that express E. coli PNP ([1]; FIG. 2, groups 1, 3, 4, 6, F-araAMP 90 mg/kg plus or minus anti-CTLA4-9H10, left flank tumors) | PNP/fludarabine phosphate treatment in combination with an anti-CTLA4 antibody ([1]; summary of FIG. 1, 2, 3) | tumor growth, group 4 (anti-CTLA4 alone) versus group 6 (fludarabine 90 mg/kg + anti-CTLA4), all tumors included in the analysis [2, 3] | tumor growth, group 4 (anti-CTLA4 alone) versus group 6 (fludarabine 90 mg/kg + anti-CTLA4), regressed tumors removed from the analysis [2, 3] | augmentation of anti-CTLA4 antibody antitumor activity in non-PNP tumors ([2]; FIG. 3 and 5, groups 1, 3, 4, 6, F-araAMP 90 mg/kg, PNP tumor regressing contralaterally) | augmentation of anti-CTLA4 antibody activity in parental (non-PNP) tumors ([2]; FIG. 4 and 6, groups 7-10, F-araAMP 90 mg/kg, no PNP expression in the animal) | abscopal effect on a non-PNP tumor of a contralateral PNP tumor regressing due to F-araAMP ([2]; FIG. 7) | abscopal effect on a non-PNP tumor of a contralateral PNP tumor regressing due to F-araAMP ([2]; FIG. 7, listed as F-araAMP) | effect of expressing E. coli PNP in a solid breast tumor on activity of checkpoint blockade inhibitors ([1]; summary of experiments) | tumor growth, group 6 (non-PNP right flank tumor, PNP tumor contralaterally) versus group 10 (right) or group 10 (left) ([2]; FIG. 7, day 15, both groups F-araAMP 90 mg/kg + anti-CTLA4-9H10)
Nc1nc(F)nc2c1ncn2[C@@H]1O[C@H](COP(=O)(O)O)[C@@H](O)[C@@H]1O [fludarabine phosphate, 2-fluoro-9-(5-O-phosphono-β-D-arabinofuranosyl)-9H-purin-6-amine] | effective | effective | improve | not significantly different | significantly different | augments | augments; also recorded: enhances | strong abscopal effect; also recorded: inhibits | abscopal effect | – | –
B1 | – | – | – | – | – | – | – | – | – | augments | significantly different
